Reference: ChEMBL document CHEMBL4627352, “New acrylamide-sulfisoxazole conjugates as dihydropteroate synthase inhibitors” (Bioorg Med Chem, 2020)
Values after ≈ are worked out from the molar mass of the structure shown. Active and inactive are the calls of the source. No cut-off for these calls is given here.

Key:
Streptococcus pneumoniae [1] = assay: Inhibition of DHPS in Streptococcus pneumoniae assessed as antibacterial activity by measuring inhibition zone at 5 mg/mL incubated for 24 hrs by disk diffusion method
Bacillus subtilis [2] = assay: Inhibition of DHPS in Bacillus subtilis assessed as antibacterial activity by measuring inhibition zone at 5 mg/mL incubated for 24 hrs by disk diffusion method
[3] = system: Staphylococcus epidermidis; assay: Inhibition of DHPS in Staphylococcus epidermidis assessed as antibacterial activity by measuring inhibition zone at 5 mg/mL incubated for 24 hrs by disk diffusion method
Escherichia coli [4] = assay: Inhibition of DHPS in Escherichia coli assessed as antibacterial activity by measuring inhibition zone at 5 mg/mL incubated for 24 hrs by disk diffusion method
Proteus vulgaris [5] = assay: Inhibition of DHPS in Proteus vulgaris assessed as antibacterial activity by measuring inhibition zone at 5 mg/mL incubated for 24 hrs by disk diffusion method
Klebsiella pneumoniae [6] = assay: Inhibition of DHPS in Klebsiella pneumoniae assessed as antibacterial activity by measuring inhibition zone at 5 mg/mL incubated for 24 hrs by disk diffusion method
Streptococcus pneumoniae [7] = assay: Inhibition of DHPS in Streptococcus pneumoniae assessed as antibacterial activity by measuring inhibition of bacterial growth incubated for 24 hrs by microbroth dilution method
Bacillus subtilis [8] = assay: Inhibition of DHPS in Bacillus subtilis assessed as antibacterial activity by measuring inhibition of bacterial growth incubated for 24 hrs by microbroth dilution method
[9] = system: Staphylococcus epidermidis; assay: Inhibition of DHPS in Staphylococcus epidermidis assessed as antibacterial activity by measuring inhibition of bacterial growth incubated for 24 hrs by microbroth dilution method
Escherichia coli [10] = assay: Inhibition of DHPS in Escherichia coli assessed as antibacterial activity by measuring inhibition of bacterial growth incubated for 24 hrs by microbroth dilution method
Klebsiella pneumoniae [11] = assay: Inhibition of DHPS in Klebsiella pneumoniae assessed as antibacterial activity by measuring inhibition of bacterial growth incubated for 24 hrs by microbroth dilution method
Aspergillus fumigatus [12] = assay: Inhibition of DHPS in Aspergillus fumigatus assessed as antifungal activity by measuring inhibition zone at 5 mg/mL incubated for 48 hrs by disk diffusion method
[13] = system: Syncephalastrum racemosum; assay: Inhibition of DHPS in Syncephalastrum racemosum assessed as antifungal activity by measuring inhibition zone at 5 mg/mL incubated for 48 hrs by disk diffusion method
Geotrichum candidum [14] = assay: Inhibition of DHPS in Geotrichum candidum assessed as antifungal activity by measuring inhibition zone at 5 mg/mL incubated for 48 hrs by disk diffusion method
Aspergillus fumigatus [15] = assay: Inhibition of DHPS in Aspergillus fumigatus assessed as antifungal activity by measuring inhibition of fungal growth incubated for 48 hrs by microbroth dilution method
[16] = system: Syncephalastrum racemosum; assay: Inhibition of DHPS in Syncephalastrum racemosum assessed as antifungal activity by measuring inhibition of fungal growth incubated for 48 hrs by microbroth dilution method
Geotrichum candidum [17] = assay: Inhibition of DHPS in Geotrichum candidum assessed as antifungal activity by measuring inhibition of fungal growth incubated for 48 hrs by microbroth dilution method
hTERT-BJ = assay: Cytotoxicity against human hTERT-BJ1 cells at 50 uM by acid phosphatase assay relative to control; assay type: cell-based
[18] = system: Escherichia coli ATCC 25922; assay: Inhibition of DHPS in Escherichia coli ATCC 25922 assessed as inhibition of bacterial growth incubated for 24 hrs in presence of folate precursor, pABA by microbroth dilution method
[19] = system: Escherichia coli ATCC 25922; assay: Inhibition of DHPS in Escherichia coli ATCC 25922 assessed as inhibition of bacterial growth incubated for 24 hrs in presence of folate dependent metabolite, methionine by microbroth dilution method
[20] = system: Syncephalastrum racemosum; assay: Potency index, ratio of amphotericin B MIC to compound MIC for Syncephalastrum racemosum assessed as inhibition of DHPS-mediated fungal growth incubated for 48 hrs by microbroth dilution method
Aspergillus fumigatus [21] = assay: Potency index, ratio of sulfisoxazole MIC to compound MIC for Aspergillus fumigatus assessed as inhibition of DHPS-mediated fungal growth incubated for 48 hrs by microbroth dilution method
Escherichia coli [22] = assay: Potency index, ratio of sulfisoxazole MIC to compound MIC for Escherichia coli assessed as inhibition of DHPS-mediated bacterial growth incubated for 24 hrs by microbroth dilution method
Geotrichum candidum [23] = assay: Potency index, ratio of sulfisoxazole MIC to compound MIC for Geotrichum candidum assessed as inhibition of DHPS-mediated fungal growth incubated for 48 hrs by microbroth dilution method
[24] = system: Syncephalastrum racemosum; assay: Potency index, ratio of sulfisoxazole MIC to compound MIC for Syncephalastrum racemosum assessed as inhibition of DHPS-mediated fungal growth incubated for 48 hrs by microbroth dilution method
Proteus vulgaris [25] = assay: Inhibition of DHPS in Proteus vulgaris assessed as antibacterial activity by measuring inhibition of bacterial growth incubated for 24 hrs by microbroth dilution method
Bacillus subtilis [26] = assay: Potency index, ratio of ampicillin MIC to compound MIC for Bacillus subtilis assessed as inhibition of DHPS-mediated bacterial growth incubated for 24 hrs by microbroth dilution method

Compound | inhibition zone (IZ) (Streptococcus pneumoniae [1]) [mm] | inhibition zone (IZ) (Bacillus subtilis [2]) [mm] | inhibition zone (IZ) [3] [mm] | inhibition zone (IZ) (Escherichia coli [4]) [mm] | inhibition zone (IZ) (Proteus vulgaris [5]) | inhibition zone (IZ) (Klebsiella pneumoniae [6]) [mm] | MIC (Streptococcus pneumoniae [7]) [µg/mL] | MIC (Bacillus subtilis [8]) [µg/mL] | MIC [9] [µg/mL] | MIC (Escherichia coli [10]) [µg/mL] | MIC (Klebsiella pneumoniae [11]) [µg/mL] | inhibition zone (IZ) (Aspergillus fumigatus [12]) [mm] | inhibition zone (IZ) [13] [mm] | inhibition zone (IZ) (Geotrichum candidum [14]) [mm] | MIC (Aspergillus fumigatus [15]) [µg/mL] | MIC [16] [µg/mL] | MIC (Geotrichum candidum [17]) [µg/mL] | Activity (hTERT-BJ) [%] | inhibition [18] | inhibition [19] | also measured
C=CCN/C(S[C@@H]1O[C@H](COC(C)=O)[C@@H](OC(C)=O)[C@H](OC(C)=O)[C@H]1OC(C)=O)=C(/C#N)C(=O)Nc1ccc(S(=O)(=O)Nc2onc(C)c2C)cc1 | 26.7 | 28.6 | 25.6 | 23.4 | inactive | 23.2 | 1.95 (≈ 2.55 µM) | 0.98 (≈ 1.28 µM) | 3.9 (≈ 5.11 µM) | 3.9 (≈ 5.11 µM) | 0.49 (≈ 0.642 µM) | 26.1 | 24.4 | 23.2 | 0.98 (≈ 1.28 µM) | 1.95 (≈ 2.55 µM) | 0.49 (≈ 0.642 µM) | 15.2 | inactive | inactive | Ratio [20]: 2; Ratio (Aspergillus fumigatus [21]): 4 to 6; Ratio (Escherichia coli [22]): 4; Ratio (Geotrichum candidum [23]): 3 to 5
CN/C(S[C@@H]1O[C@H](COC(C)=O)[C@H](OC(C)=O)[C@H](OC(C)=O)[C@H]1OC(C)=O)=C(/C#N)C(=O)Nc1ccc(S(=O)(=O)Nc2onc(C)c2C)cc1 | 17.3 | 16.8 | 15.4 | 16.3 | 11.8 mm | 17.1 | 15.6 (≈ 21.2 µM) | 15.6 (≈ 21.2 µM) | 62.5 (≈ 84.7 µM) | 15.6 (≈ 21.2 µM) | 31.2 (≈ 42.4 µM) | 16.3 | 15.1 | 16.9 | 31.2 (≈ 42.4 µM) | 62.5 (≈ 84.7 µM) | 62.5 (≈ 84.7 µM) | 26 | inactive | inactive | Ratio (Aspergillus fumigatus [21]): 1 to 3; Ratio [24]: 1 to 3
CCN/C(SCC)=C(/C#N)C(=O)Nc1ccc(S(=O)(=O)Nc2onc(C)c2C)cc1 | 24.3 | 26.3 | 22.8 | 20.6 | 19.6 mm | 23.2 | 0.12 (≈ 0.267 µM) | 0.12 (≈ 0.267 µM) | 0.49 (≈ 1.09 µM) | 1.95 (≈ 4.34 µM) | 0.49 (≈ 1.09 µM) | 21.6 | 20.3 | 20.4 | 0.98 (≈ 2.18 µM) | 3.9 (≈ 8.68 µM) | 3.9 (≈ 8.68 µM) | 8.5 | inactive | inactive | MIC (Proteus vulgaris [25]): 3.9 µg/mL (≈ 8.68 µM); Ratio [20]: 2; Ratio (Bacillus subtilis [26]): 2
CCN/C(S[C@@H]1O[C@H](COC(C)=O)[C@H](OC(C)=O)[C@H](OC(C)=O)[C@H]1OC(C)=O)=C(/C#N)C(=O)Nc1ccc(S(=O)(=O)Nc2onc(C)c2C)cc1 | 18.9 | 17.6 | 16.3 | 17.1 | 13.4 mm | 19.8 | 7.8 (≈ 10.4 µM) | 7.8 (≈ 10.4 µM) | 31.2 (≈ 41.6 µM) | 7.81 (≈ 10.4 µM) | 7.81 (≈ 10.4 µM) | 17.2 | 15.9 | 18.3 | 15.6 (≈ 20.8 µM) | 31.2 (≈ 41.6 µM) | 31.2 (≈ 41.6 µM) |  | inactive | inactive | MIC (Proteus vulgaris [25]): 125 µg/mL (≈ 166 µM); Ratio (Aspergillus fumigatus [21]): 1 to 3; Ratio (Escherichia coli [22]): 3; Ratio [24]: 1 to 3
